Drawing on the NIST ThermoML archive (doi:10.1016/j.jct.2012.08.024), this text covers viscosity and mass density for 2 compounds.

± gives the expanded uncertainty stated by the source.

The conditions of the data set: 101.33 kPa, Liquid; for viscosity: Capillary tube (Ostwald / Ubbelohde) method; for mass density: Vibrating tube method.

`OCCO` [1,2-ethanediol]: the viscosity was 16.61 ± 0.23 mPa·s (298.15 K); 13.58 ± 0.18 mPa·s (303.15 K); 11.24 ± 0.15 mPa·s (308.15 K); 9.404 ± 0.13 mPa·s (313.15 K); 7.945 ± 0.11 mPa·s (318.15 K); 6.774 ± 0.094 mPa·s (323.15 K). For the same compound, the viscosity (328.15 K) is on record as 5.826 ± 0.081 mPa·s. The mass density is, setting by setting: (303.15 K) 1106.38 ± 0.08 kg/m3; (313.15 K) 1099.31 ± 0.08 kg/m3; (323.15 K) 1092.16 ± 0.08 kg/m3.
Regarding `CCO` [ethanol], the viscosity is, setting by setting: (298.15 K) 1.087 ± 0.016 mPa·s; (303.15 K) 0.99 ± 0.02 mPa·s; (308.15 K) 0.905 ± 0.013 mPa·s; (313.15 K) 0.829 ± 0.012 mPa·s; (318.15 K) 0.761 ± 0.011 mPa·s; (323.15 K) 0.706 ± 0.01 mPa·s. In addition, under “328.15 K”, the viscosity came out at 0.648 ± 0.009 mPa·s. The mass density is, setting by setting: (298.15 K) 785.07 ± 0.15 kg/m3; (303.15 K) 780.75 ± 0.15 kg/m3; (308.15 K) 776.41 ± 0.15 kg/m3; (313.15 K) 772.02 ± 0.15 kg/m3; (318.15 K) 767.59 ± 0.15 kg/m3; (323.15 K) 763.11 ± 0.15 kg/m3. Besides, the mass density (328.15 K) worked out at 758.58 ± 0.16 kg/m3.

What is called viscosity is the internal friction of a fluid under shear. For orientation: mass density means the mass of a sample divided by its volume.
